The results in this text go back to US9464058B2 (Hoffmann-La Roche Inc., priority 2012, dated 2016).

Structures are written as SMILES.

One assay addresses T1, human CYP11B2 (Homo sapiens, UniProt P19099).
T1 construct: expressed in transfected cells
T1 sequence (P19099 25-503): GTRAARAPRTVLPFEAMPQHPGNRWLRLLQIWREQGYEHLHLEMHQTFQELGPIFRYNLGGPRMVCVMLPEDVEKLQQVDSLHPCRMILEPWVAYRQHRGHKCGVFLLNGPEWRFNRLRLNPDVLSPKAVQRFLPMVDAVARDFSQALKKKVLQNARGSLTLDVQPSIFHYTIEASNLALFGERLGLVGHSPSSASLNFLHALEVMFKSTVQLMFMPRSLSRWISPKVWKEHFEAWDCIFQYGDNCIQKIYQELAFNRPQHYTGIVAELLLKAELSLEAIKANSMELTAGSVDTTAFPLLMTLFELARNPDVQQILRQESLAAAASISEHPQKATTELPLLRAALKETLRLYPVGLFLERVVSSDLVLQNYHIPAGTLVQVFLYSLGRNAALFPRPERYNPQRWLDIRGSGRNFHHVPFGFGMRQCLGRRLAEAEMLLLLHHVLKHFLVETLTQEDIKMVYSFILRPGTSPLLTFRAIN
Briefly: G-402 cellular enzyme assay, human CYP11B2 (aldosterone release, HTRF). Particulars: G-402 cells expressing human CYP11B2; 1 μM Deoxycorticosterone; 16 h. The assay is classed as cell-based. From the text:
(§1) Herein we identified the use of the G-402 cell line as a host cell to ectopically express (transiently or stably) enzymes of the CYP11 family. Specifically we developed stable G-402 cells expressing ectopically human CYP11B1, human CYP11B2, human CYP11A1, cynomolgus CYP11B1 or cynomolgus CYP11B2 enzyme activity. Importantly, the identified cell line G-402 expresses co-factors (adrenodoxin and adrenodoxin reductase) important for the activity of the CYP11 family, and no relevant enzyme activity of the CYP11 family (in comparison to H295R cells) was detected in these cells. Therefore the G-402 cell line is uniquely suited as a host cell for the ectopic expression of enzymes from the CYP11 family.
(§2) G-402 cells can be obtained from ATCC(CRL-1440) and were originally derived from a renal leiomyoblastoma.
(§3) The expression plasmids contains the ORF for either human/cyno CYP11B1 or CYP11B2 under the control of a suitable promoter (CMV-promoter) and a suitable resistance marker (neomycin). Using standard techniques the expression plasmid is transfected into G-402 cells and these cells are then selected for expressing the given resistance markers. Individual cell-clones are then selected and assessed for displaying the desired enzymatic activity using 11-Deoxycorticosterone (Cyp11B2) or 11-Deoxycortisol (Cyp11B1) as a substrate.
(§4) G-402 cells expressing CYP11 constructs were established as described above and maintained in McCoy's 5a Medium Modified, ATCC Catalog No. 30-2007 containing 10% FCS and 400 μg/ml G418 (Geneticin) at 37° C. under an atmosphere of 5% CO2/95% air. Cellular enzyme assays were performed in DMEM/F12 medium containing 2.5% charcoal treated FCS and appropriate concentration of substrate (0.3-10 uM 11-Deoxycorticosterone, 11-Deoxycortisol or Corticosterone). For assaying enzymatic activity, cells were plated onto 96 well plates and incubated for 16 h. An aliquot of the supernatant is then transferred and analyzed for the concentration of the expected product (Aldosterone for CYP11B2; Cortisol for CYP11B1). The concentrations of these steroids can be determined using HTRF assays from CisBio analyzing either Aldosterone or Cortisol.
(§5) Inhibition of the release of produced steroids can be used as a measure of the respective enzyme inhibition by test compounds added during the cellular enzyme assay. The dose dependent inhibition of enzymatic activity by a compound is calculated by means of plotting added inhibitor concentrations (x-axes) vs. measured steroid/product level (y-axes). The inhibition is then calculated by fitting the following 4-parameter sigmoidal function (Morgan-Mercer-Flodin (MMF) model) to the raw data points using the least squares method:
(§6) [formula] wherein A is the maximum y value, B is the EC50 factor determined using XLFit, C is the minimum y value and D is the slope value.
(§7) EC50 values for compounds claimed herein were tested with the G402-based assay system described. Cyp11B2 enzyme activity was tested in presence of 1 μM Deoxycorticosterone and variable amounts of inhibitors; Cyp11B1 enzyme activity was tested in presence of 1 μM Deoxycortisol and variable amounts of inhibitors.
(In general: In TR-FRET formats the signal depends on donor and acceptor labels being close together.)

For a further assay, the target named is T2, human CYP11B1 (Homo sapiens, UniProt P15538).
T2 construct: expressed in transfected cells
T2 sequence (P15538 25-503): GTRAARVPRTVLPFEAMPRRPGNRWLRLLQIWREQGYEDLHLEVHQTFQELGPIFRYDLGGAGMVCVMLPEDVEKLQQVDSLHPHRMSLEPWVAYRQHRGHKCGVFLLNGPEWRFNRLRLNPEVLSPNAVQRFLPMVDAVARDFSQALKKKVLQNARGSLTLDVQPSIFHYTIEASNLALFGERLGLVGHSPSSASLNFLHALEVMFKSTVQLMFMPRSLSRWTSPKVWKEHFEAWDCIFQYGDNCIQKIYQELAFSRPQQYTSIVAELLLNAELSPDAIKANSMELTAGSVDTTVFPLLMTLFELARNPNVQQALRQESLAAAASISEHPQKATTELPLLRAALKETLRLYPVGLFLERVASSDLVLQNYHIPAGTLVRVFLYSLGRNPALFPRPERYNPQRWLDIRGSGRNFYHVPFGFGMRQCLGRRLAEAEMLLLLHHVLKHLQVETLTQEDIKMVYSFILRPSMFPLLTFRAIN
Briefly: G-402 cellular enzyme assay, human CYP11B1 (cortisol release, HTRF). Conditions: G-402 cells expressing human CYP11B1; 1 μM Deoxycortisol; 16 h. Format: cell-based.
Excerpt: as §1, §2, §3, §4, §5, §6, §7

As for `CCn1cncc1C(=O)c1ccc2c(c1)CCC(=O)N2C` [Example 26, 6-(3-Ethyl-3H-imidazole-4-carbonyl)-1-methyl-3,4-dihydro-1H-quinolin-2-one], the EC50 (commonly the midpoint of the concentration-response curve) at human CYP11B2 came out at 19.7 nM; on human CYP11B1, 1120 nM.

Regarding `CC(C)n1cncc1C(=O)c1ccc2c(c1)CCC(=O)N2C` [Example 27, 6-(3-Isopropyl-3H-imidazole-4-carbonyl)-1-methyl-3,4-dihydro-1H-quinolin-2-one], the EC50 stood at 6.9 nM on human CYP11B2 and 153 nM at human CYP11B1.

For `CCC(C)n1cncc1C(=O)c1cccc(Cl)c1` (centres unmarked) [Example 28, (3-sec-Butyl-3H-imidazol-4-yl)-(3-chloro-phenyl)-methanone], the EC50 came out at 14.1 nM at human CYP11B2 and 22.7 nM at human CYP11B1.

As to `C#Cc1ccc(C(=O)c2cncn2C)cc1` [Example 29, (4-Ethynyl-phenyl)-(3-methyl-3H-imidazol-4-yl)-methanone], the EC50 at human CYP11B2 is 20.3 nM; at human CYP11B1, 259 nM.

As for `Cn1cncc1C(=O)c1ccc(C(F)(F)F)cc1` [Example 31, (3-Methyl-3H-imidazol-4-yl)-(4-trifluoromethyl-phenyl)-methanone], the values for the EC50 at human CYP11B2 and at human CYP11B1 were 197 nM and 7840 nM, respectively.

With `Cn1cncc1C(=O)c1ccc(F)c(Cl)c1` [Example 32, (3-Chloro-4-fluoro-phenyl)-(3-methyl-3H-imidazol-4-yl)-methanone], the concentration for a half-maximal effect (EC50) on human CYP11B2 was 11.7 nM; on human CYP11B1, 304 nM.

Regarding `CCn1cncc1C(=O)c1ccc(F)c(Cl)c1` [Example 33, (3-Chloro-4-fluoro-phenyl)-(3-ethyl-3H-imidazol-4-yl)-methanone], the EC50 was 3.7 nM on human CYP11B2 and 31.7 nM at human CYP11B1.

Take `CCn1cncc1C(=O)c1ccc(Cl)c(F)c1` [Example 34, (4-Chloro-3-fluoro-phenyl)-(3-ethyl-3H-imidazol-4-yl)-methanone]: the EC50 worked out at 2.7 nM at human CYP11B2 and 33 nM on human CYP11B1.

In the case of `CCn1cncc1C(=O)c1ccc(C(C)(C)C)cc1` [Example 35, (4-tert-Butyl-phenyl)-(3-ethyl-3H-imidazol-4-yl)-methanone], the EC50 at human CYP11B2 was found to be 3670 nM; at human CYP11B1, 1690 nM.

Turning to `CCn1cncc1C(=O)c1ccc(C(F)(F)F)cc1` [Example 36, (3-Ethyl-3H-imidazol-4-yl)-(4-trifluoromethyl-phenyl)-methanone], the concentration for a half-maximal effect (EC50) at human CYP11B2 is 58.7 nM; at human CYP11B1, 1750 nM.

As for `CCC(C)n1cncc1C(=O)c1cccc(C#N)c1` (centres unmarked) [Example 37, 3-(3-sec-Butyl-3H-imidazole-4-carbonyl)-benzonitrile], the values for the EC50 on human CYP11B2 and at human CYP11B1 were 6.3 nM and 78.2 nM, respectively.

`CC(C)n1cncc1C(=O)c1ccc(F)c(Cl)c1` [Example 38, (3-Chloro-4-fluoro-phenyl)-(3-isopropyl-3H-imidazol-4-yl)-methanone]: the EC50 at human CYP11B2 and at human CYP11B1 was 3.9 nM each time.

As to `CC(C)n1cncc1C(=O)c1ccc(Cl)c(F)c1` [Example 39, (4-Chloro-3-fluoro-phenyl)-(3-isopropyl-3H-imidazol-4-yl)-methanone], the EC50 on human CYP11B2 is 0.7 nM; at human CYP11B1, 3.3 nM.

In the case of `O=C(c1ccc(Cl)c(F)c1)c1cncn1C1CC1` [Example 40, (4-Chloro-3-fluoro-phenyl)-(3-cyclopropyl-3H-imidazol-4-yl)-methanone], the EC50 is 2.3 nM at human CYP11B2 and 14.8 nM on human CYP11B1.

As for `O=C(c1ccc(F)c(Cl)c1)c1cncn1C1CC1` [Example 41, (3-Chloro-4-fluoro-phenyl)-(3-cyclopropyl-3H-imidazol-4-yl)-methanone], the figures for the EC50 at human CYP11B2 and on human CYP11B1 were 3.5 nM and 21 nM, respectively.

Turning to `Cn1cncc1C(=O)c1ccc(C#N)c(Cl)c1` [Example 42, 2-Chloro-4-(3-methyl-3H-imidazole-4-carbonyl)-benzonitrile], the EC50 at human CYP11B2 stood at 7.4 nM; at human CYP11B1, 89.3 nM.

Turning to `CSc1ccc(C(=O)c2cncn2C)cc1` [Example 43, (3-Methyl-3H-imidazol-4-yl)-(4-methylsulfanyl-phenyl)-methanone], the EC50 stood at 28.4 nM at human CYP11B2 and 1530 nM at human CYP11B1.

`Cn1cncc1C(=O)c1ccc2sccc2c1` [Example 44, Benzo[b]thiophen-5-yl-(3-methyl-3H-imidazol-4-yl)-methanone]: the values for the EC50 on human CYP11B2 and at human CYP11B1 were 40.9 nM and 1070 nM, respectively.

With `Cn1cncc1C(=O)c1ccc(F)c(C#N)c1` [Example 45, 2-Fluoro-5-(3-methyl-3H-imidazole-4-carbonyl)-benzonitrile], the EC50 at human CYP11B2 came out at 575 nM; on human CYP11B1, 11300 nM.

`CCn1cncc1C(=O)c1ccc(C#N)c(Cl)c1` [Example 46, 2-Chloro-4-(3-ethyl-3H-imidazole-4-carbonyl)-benzonitrile]: the values for the EC50 on human CYP11B2 and on human CYP11B1 were 2.3 nM and 25.4 nM, respectively.

For `C#Cc1ccc(C(=O)c2cncn2CC)cc1` [Example 48, (3-Ethyl-3H-imidazol-4-yl)-(4-ethynyl-phenyl)-methanone], the EC50 at human CYP11B2 came to 4.3 nM; at human CYP11B1 it was 33 nM.

For `CC(C)n1cncc1C(=O)c1ccc(C#N)c(Cl)c1` [Example 49, 2-Chloro-4-(3-isopropyl-3H-imidazole-4-carbonyl)-benzonitrile], the EC50 at human CYP11B2 was 0.2 nM; at human CYP11B1, 1 nM.

For the compound `COc1cc(C(=O)c2cncn2C)ccc1SC` [Example 50, (3-Methoxy-4-methylsulfanyl-phenyl)-(3-methyl-3H-imidazol-4-yl)-methanone], the EC50 at human CYP11B2 is 14.8 nM; on human CYP11B1, 687 nM.

For `CCSc1ccc(C(=O)c2cncn2C)cc1` [Example 51, (4-Ethylsulfanyl-phenyl)-(3-methyl-3H-imidazol-4-yl)-methanone], the figures for the EC50 on human CYP11B2 and at human CYP11B1 were 102 nM and 3250 nM, respectively.

For the compound `C#Cc1ccc(C(=O)c2cncn2C(C)C)cc1` [Example 54, (4-Ethynyl-phenyl)-(3-isopropyl-3H-imidazol-4-yl)-methanone], the figures for the concentration giving a half-maximal response (EC50) at human CYP11B2 and on human CYP11B1 were 0.5 nM and 6.8 nM, respectively.

Regarding `CCn1cncc1C(=O)c1cccc(C#N)c1` [Example 56, 3-(3-Ethyl-3H-imidazole-4-carbonyl)-benzonitrile], the EC50 on human CYP11B2 was 109 nM; at human CYP11B1 it was 1210 nM.

In the case of `CC(C)n1cncc1C(=O)c1cccc(C#N)c1` [Example 57, 3-(3-Isopropyl-3H-imidazole-4-carbonyl)-benzonitrile], the EC50 on human CYP11B2 stood at 26 nM; on human CYP11B1, 203 nM.

Regarding `N#Cc1cccc(C(=O)c2cncn2C2CC2)c1` [Example 58, 3-(3-Cyclopropyl-3H-imidazole-4-carbonyl)-benzonitrile], the results for the EC50 on human CYP11B2 and at human CYP11B1 were 87.2 nM and 890 nM, respectively.
